Source: patent US10273218B2, “BCL-3 inhibitors” (University College Cardiff Consultants Limited, priority 2014, dated 2019)

| melting point | Compound |
| --- | --- |
| 130 to 132 °C | COc1cccc(C(=O)NCCc2ccccc2)c1NC(=O)c1ccccc1F [Compound 84, 2-(2-fluorobenzamido)-3-methoxy-N-phenethylbenzamide] |
| 99 to 101 °C | COc1cccc(C(=O)NCCc2ccccc2)c1NC(=O)c1cccc(F)c1 [Compound 85, 2-(3-fluorobenzamido)-3-methoxy-N-phenethylbenzamide] |
| 140 to 142 °C | COc1cccc(C(=O)NCCc2ccccc2)c1NC(=O)c1ccc(F)cc1 [Compound 86, 2-(4-fluorobenzamido)-3-methoxy-N-phenethylbenzamide] |
| 100 to 102 °C | COc1cccc(C(=O)Nc2c(OC)cccc2C(=O)NCCc2ccccc2)c1 [Compound 91, 3-methoxy-2-(3-methoxybenzamido)-N-phenethylbenzamide] |
| 132 to 134 °C | COc1ccc(C(=O)Nc2c(OC)cccc2C(=O)NCCc2ccccc2)c(OC)c1 [Compound 93, 2-(2,4-dimethoxybenzamido)-3-methoxy-N-phenethylbenzamide] |
| 94 °C | O=C(Nc1ccccc1C(=O)NCCc1ccccc1)c1cccnc1 [Compound 94, N-(2-(phenethylcarbamoyl)phenyl)nicotinamide] |
| 61 to 63 °C | O=C(Nc1ccccc1C(=O)NCCCc1ccccc1)c1ccccc1F [Compound 95, 2-fluoro-N-(2-((3-phenylpropyl)carbamoyl)phenyl)benzamide] |
| 93 to 94 °C | COc1ccc(C(=O)Nc2ccccc2C(=O)NCCCc2ccccc2)cc1 [Compound 96, 2-(4-methoxybenzamido)-N-(3-phenylpropyl)benzamide] |
| 98 to 100 °C | O=C(NCCCc1ccccc1)c1ccccc1NC(=O)c1cccc2ccccc12 [Compound 97, N-(2-((3-phenylpropyl)carbamoyl)phenyl)-1-naphthamide] |
| 99 to 101 °C | O=C(Nc1ccccc1C(=O)NCCCc1ccccc1)c1ccc2ccccc2c1 [Compound 98, N-(2-((3-phenylpropyl)carbamoyl)phenyl)-2-naphthamide] |
| 113 to 115 °C | COc1cccc(C(=O)Nc2ccccc2C(=O)NCCN2CCN(C)CC2)c1 [Compound 101, 2-(3-methoxybenzamido)-N-(2-(4-methylpiperazin-1-yl)ethyl)benzamide] |
| 59 to 61 °C | O=C(Nc1ccccc1C(=O)NCCN1CCNCC1)c1cccc(Cl)c1 [Compound 102, 2-(3-chlorobenzamido)-N-(2-(piperazin-1-yl)ethyl)benzamide] |
| > 90 °C | O=C(Nc1ncccc1C(=O)O)c1ccccc1F [Compound 105, 2-(2-fluorobenzamido)nicotinic acid] |
| 89 to 91 °C | CN1CCN(CCNC(=O)c2ccccc2NC(=O)c2ccc(F)cc2)CC1 [Compound 107, 2-(4-fluorobenzamido)-N-(2-(4-methylpiperazin-1-yl)ethyl)benzamide] |
| 68 to 71 °C | CN1CCN(CCNC(=O)c2ccccc2NC(=O)c2ccc(C(F)(F)F)cc2)CC1 [Compound 108] |
| 81 to 83 °C | COc1ccc(C(=O)Nc2cccc(F)c2C(=O)NCCN2CCN(C)CC2)cc1 [Compound 109, 2-fluoro-6-(4-methoxybenzamido)-N-(2-(4-methylpiperazin-1-yl)ethyl)benzamide] |

| melting point | Compound |
| --- | --- |
| 108 to 110 °C | COc1cccc(C(=O)Nc2cccc(F)c2C(=O)NCCN2CCN(C)CC2)c1 [Compound 110, 2-fluoro-6-(3-methoxybenzamido)-N-(2-(4-methylpiperazin-1-yl)ethyl)benzamide] |
| 105 to 107 °C | COc1ccc(C(=O)Nc2ccncc2C(=O)NCCN2CCOCC2)cc1 [Compound 113, 4-(4-methoxybenzamido)-N-(2-morpholinoethyl)nicotinamide] |
| 101 to 103 °C | CN1CCN(CCNC(=O)c2ccccc2NC(=O)c2cccc(C(F)(F)F)c2)CC1 [Compound 114, N-(2-(4-methylpiperazin-1-yl)ethyl)-2-(3-(trifluoromethyl)benzamido) benzamide] |
| 69 to 71 °C | CN1CCN(CCNC(=O)c2ccccc2NC(=O)c2ccc(OC(F)(F)F)cc2F)CC1 [Compound 115, 2-fluoro-N-(2-((2-(4-methylpiperazin-1-yl)ethyl)carbamoyl)phenyl)-4-(trifluoromethoxy)benzamide] |
| 83 to 85 °C | COc1ccc(C(=O)Nc2ccncc2C(=O)NCCN2CCN(C)CC2)cc1 [Compound 116, 4-(4-methoxybenzamido)-N-(2-(4-methylpiperazin-1-yl)ethyl)nicotinamide] |
| 124 to 126 °C | CN1CCN(CCNC(=O)c2ccccc2NC(=O)c2ccccc2C(F)(F)F)CC1 [Compound 117] |
| 188 to 190 °C | COc1cccc(C(=O)NCCc2ccccc2)c1NC(=O)c1ccc2ccccc2c1 [Compound 119, N-(2-methoxy-6-(phenethylcarbamoyl)phenyl)-2-naphthamide] |
| 152 to 154 °C | COc1cccc(C(=O)NCCCc2ccccc2)c1NC(=O)c1ccc2ccccc2c1 [Compound 120, N-(2-methoxy-6-((3-phenylpropyl)carbamoyl)phenyl)-2-naphthamide] |
| 140 to 142 °C | COc1cccc(C(=O)NCCCN2CCOCC2)c1NC(=O)c1ccc2ccccc2c1 [Compound 121, N-(2-methoxy-6-(3-morpholinopropylcarbamoyl)phenyl)-2-naphthamide] |
| 145 to 147 °C | COc1cc(C(=O)NCCCc2ccccc2)c(NC(=O)c2ccccc2F)c(OC)c1OC [Compound 124, 2-(2-fluorobenzamido)-3,4,5-trimethoxy-N-(3-phenylpropyl)benzamide] |
| 150 to 152 °C | COc1cccc(C(=O)NCCCc2ccccc2)c1NC(=O)c1cccc2ccccc12 [Compound 125, N-(2-methoxy-6-((3-phenylpropyl)carbamoyl)phenyl)-1-naphthamide] |
| 120 to 122 °C | COc1cc(C(=O)NCCCN2CCOCC2)c(NC(=O)c2cccnc2)c(OC)c1OC [Compound 132, N-(2,3,4-trimethoxy-6-((3-morpholinopropyl)carbamoyl)phenyl) nicotinamide] |
| 105 to 107 °C | COc1cccc(C(=O)NCCN2CCOCC2)c1NC(=O)c1ccccc1F [Compound 145, 2-(2-fluorobenzamido)-3-methoxy-N-(2-morpholinoethyl)benzamide] |
| 147 to 149 °C | O=C(Nc1ccccc1C(=O)NCCN1CCOCC1)c1cccc([N+](=O)[O-])c1 [Compound 146, N-(2-morpholinoethyl)-2-(3-nitrobenzamido)benzamide] |
| 138 to 140 °C | O=C(NCCN1CCOCC1)c1ccccc1NC(=O)c1ccccc1[N+](=O)[O-] [Compound 147, N-(2-morpholinoethyl)-2-(2-nitrobenzamido)benzamide] |
| 147 to 149 °C | O=C(Nc1ccccc1C(=O)NCCN1CCOCC1)c1ccc([N+](=O)[O-])cc1 [Compound 148, N-(2-morpholinoethyl)-2-(4-nitrobenzamido)benzamide] |
